Experimental data from US9180077B2, “Green tea extracts of improved bioavailability” (Nestec S.A., priority 2009, dated 2015).

Test: Stability study of green tea catechins: incubation in Na-Pi buffer pH 7.4 at 37° C., HPLC
Assay type: physicochemical
Protocol: Samples were prepared according to the following method. Briefly, each sample was treated with acetic acid (30% final concentration) for 30 min and then added to an aqueous solution containing 10% acetonitrile, 0.5 mg/mL EDTA and 0.5 mg/mL ascorbic acid. The mix was then centrifuged for 30 min at 14′000×g and the supernatant analysed by HPLC. Following this protocol allows the complete recovery of all catechins.
Green tea catechins were determined by reverse phase HPLC using an analytical method based on the ISO FDIS 14502-2 method. The HPLC system used was a 1100 series Hewlett-Packard (Geneva, Switzerland) model equipped with an ultraviolet-visible photodiode array and a fluorimetric detector. Catechins were detected by UV absorption at 280.4 nm except for catechins and epicatechin that were detected by fluorescence (excitation: 280 nm; emission: 310 nm). Samples (10 μl) were separated on a Zorbax RX—C18 column (4.6 mm internal diameter×250 mm length, Agilent technologies). Flow rate was 1.0 mL/min.
Sample concentration of green tea catechins (C, EC, EgC, EgCg, ECg) were calculated based on the corresponding calibration curve and reported as % of the initial value (sample at t0). Since caffeine, endogenous to green tea samples, is stable under the selected assay conditions, it was used as internal standard for all calculations. […]

protection of catechins (0.2 mM, at least for 2 h of incubation, data not shown): a certain protection
vitamin C concentration at which the plateau of stabilisation is reached (stabilisation during 6 h, GTE 0.1%, pH 7.4, 37° C): 2.5 mM
SMILES: O=C1O[C@H]([C@@H](O)CO)C(O)=C1O [vitamin C, ascorbic acid]
